Assays:
[1] = tested on: Human mesenchymal stem cells (hMSCs); assay: Long term conditioning of hMSCs with biochemical factors and mechanical load, immunostaining; type: cell-based; settings: seven days; for paxillin levels: with and without load (0.1 Hz, 7.5% strain, 4 hours daily); for endothelial marker vWF: in combination with mechanical loading
Experimental: Human mesenchymal stem cells (hMSCs; Millipore) were cultured in low glucose DMEM medium supplemented with 15% fetal bovine serum, L-glutamine, and penicillin/streptomycin. Following trypsinization, cells were seeded on the membranes at 4,000 cells per cm^2 before mechanical loading. Immunocytochemical staining. Cells were fixed in 4% paraformaldehyde in PBS for 10 min followed by washing and permeabilization with 0.1% Triton X-100 PBS for 5 min. Next, samples were blocked with 1% BSA 5% FBS in PBS for 40 min. After washing, cells were incubated with primary antibodies (Table 1) overnight at 4° C. The next day, samples were washed in 1% BSA in PBS and was incubated with secondary antibodies and DAPI staining for 2 hours in a light protected environment. For actin staining, an alternative step was used in which samples were treated with Alexa 594 conjugated phalloidin for 30 min. Cells were washed thoroughly before they were imaged. For standard fluorescent microscopy, Zeiss Observerl was used. […] Long term conditioning of hMSCs using biochemical factors. For long term loading, cells were exposed to media containing small biomolecules (Table 3). They were loaded for 4 hours every day for 7 days under sine and brachial waveform at 0.1 Hz and 7.5% maximum strain and compared against those in static culture. Media containing the biomolecules were replaced on day 3 and day 5, with the exception of 5-Aza containing media. Due to the cytotoxic nature of 5-Aza, it was replaced with normal media on day 1. On day 6, media was replaced with 0.5% FBS containing media post loading. Following long term loading on day 7, the condition media was collected and further assays were performed on the cells. To examine the ability of long term application of mechanical loading in conditioning MSCs, the cells were treated with treatments known to cause differentiation into vascular/cardiovascular phenotypes including 5-azacitidine (5-aza), Dexamethasone with insulin (Dex+Ins), PDGF-BB, hydrocortisone (Hydrocort), EGF, VEGF-A, and TGF-β1.

[2] = tested on: Smad2/3; assay: Smad transcription factor activity, multi-strain mechanical loading; type: cell-based, human; settings: MSCs; 0.1 Hz, 7.5% strain, 24 hours, co-treatment
Experimental: Transcription factor activity assay.
To perform a high throughput assay of the dependence of magnitude of mechanical strain on the activation of Smad2/3, the heights of the individual pistons were adjusted to apply mechanical strains over a range of 0 to 17.5% strain, in increments of 2.5% strain (FIGS. 2B-D). […] The regulation of differentiation-related pathways in MSCs was examined by loading the cells for 24 hours under multi-strain conditions at 0.1 Hz and performing immunostaining. A maximal increase in nuclear to cytoplasmic Yap/Taz was found at 7.5% strain and maximal nuclear localization of Smad2/3 at 10-12.5% strain (FIG. 2F). In addition, there was a maximal increase in α-SMA expression in the range of strains from 7.5-12.5% strain (FIG. 2G). At 10-15% strain, there was a maximal increase in polymerized actin and paxillin (FIG. 2G). The mechanical loading was repeated at 7.5% strain with 0.1 Hz frequency using both sine and brachial waveforms and then performed western blotting. With brachial waveform loading, increases in PECAM-1 expression were found and as well as a reduction in α-SMA expression and an increase in p-Smad 2/3 (FIGS. 2H, I). Overall, these studies support maximal activation of Smad signaling in MSCs with 0.1 Hz of loading at 7.5% strain, with an increase in endothelial-like phenotype with brachial loading.

[3] = tested on: Human mesenchymal stem cells (hMSCs); assay: Oil Red O or Alizarin Red staining for adipogenic and osteogenic differentiation; type: cell-based
Experimental: Long term conditioning of hMSCs using biochemical factors. For long term loading, cells were exposed to media containing small biomolecules (Table 3). They were loaded for 4 hours every day for 7 days under sine and brachial waveform at 0.1 Hz and 7.5% maximum strain and compared against those in static culture. Media containing the biomolecules were replaced on day 3 and day 5, with the exception of 5-Aza containing media. Due to the cytotoxic nature of 5-Aza, it was replaced with normal media on day 1. On day 6, media was replaced with 0.5% FBS containing media post loading. Following long term loading on day 7, the condition media was collected and further assays were performed on the cells. […] To test for adipogenic and osteogenic differentiation, the cells were also stained using Oil Red O or Alizarin Red dye.

[4] = tested on: FOXO; settings: MSCs; VEGF at 2 Hz frequency of loading (5% maximal strain) or at 1 Hz; 10 ng/ml; 8 hours
Experimental: (§1) Transcription factor activity assay. The cells were transduced with luminescent reporter vectors for target transcription factors. Briefly, for each target transcription factor, freshly passaged hMSCs were treated with luciferase reporter expressing lentiviruses (Qiagen). For the drug screening assay, hMSCs were treated with biomolecules in the kinase inhibitor library (Millipore Calbiochem) 1 hour prior to loading. After mechanical loading, the cells were lysed and the relative luminescent signal was measured using the luciferase assay kit (Promega) with FlexStation-3 plate reader (Molecular Devices). For each plate, average from three individual readings was reported.
(§2) A major limitation of previous studies in mechanobiology is the limited ability to investigate a variety of conditions simultaneously. This gap in capability leads to an incomplete exploration of the range of mechanical conditions and greatly reduces the ability to examine synergy between applied mechanical forces and biochemical signals. Mesenchymal stem cells were transduced with lentiviruses expressing luciferase reporter constructs for transcription factors including FOXO, TCF/LEF, Smad2/3 and SRE and selected these to obtain a stable reporter cell line. […]

[5] = tested on: TCF/LEF; settings: MSCs; loading at 0.1 Hz with VEGF treatment; 10 ng/ml; 8 hours
Experimental: as §1, §2

[6] = tested on: Human mesenchymal stem cells (hMSCs); settings: long term conditioning
Description: Fluorescence Activated Cell Sorting (FACS). After long term loading, the cells were then detached from the loading plate using accutase (Sigma) and was labeled with fluorescent antibodies according the BD Bioscience FACS staining kit (BD 562725) for cardiovascular phenotypes such as endothelial, smooth muscle, and pericyte phenotypes. […] Fortessa of UT Austin Core Facility was used to measure population fluorescent signals.
To address these issues, a combinatorial set of mechanical loading and biochemical or pharmacological treatments were applied to MSCs and the phenotype assessed using multiple markers using FACS (FIG. 5A).

Row | Compound | PECAM-1 ([1]; in combination with mechanical load) | paxillin levels [1] | endothelial marker vWF [1] | Smad transcription factor activity [2] | nuclear localization of Yap/Taz ([1]; with mechanical loading, in comparison to other treatment groups) | Osteogenesis (Alizarin Red) ([3]; static conditions) | Osteogenesis (Alizarin Red) ([3]; with mechanical loading) | FOXO transcription factor activity [4] | TCF/LEF transcription factor activity [5] | endothelial lineage defined by the FACS protocol [6]
1 | Nc1ncn([C@@H]2O[C@H](CO)[C@@H](O)[C@H]2O)c(=O)n1 [5-aza, 5-Azacytidine] | increased | increased paxillin levels | – | – | – | – | – | – | – | –
2 | EGF [growth factor, Sigma-Aldrich E9644, 10 ng/mL] | – | increased paxillin levels | to a lesser extent | – | – | – | – | – | – | –
3 | TGF-β1 | – | not increased | – | optimal synergistic activation | markedly reduced | observed | did not occur | – | – | –
4 | VEGF | – | increased paxillin levels | to a lesser extent | – | – | – | – | reduction in FOXO activity | synergistically activated | did not increase
